Experimental data reported in ChEMBL document CHEMBL5678816, “A Next-Generation TRK Kinase Inhibitor Overcomes Acquired Resistance to Prior TRK Kinase Inhibition in Patients with TRK Fusion-Positive Solid Tumors” (Cancer Discov, 2017).
Activity calls are given as the source filed them. The calls are words filed in the database; no cut-off is given here.

Legend:
[1] = tested on: MV4-11; test: Inhibition of cell proliferation in human MV4-11 cells upto 10 umol/L incubated for 72 hrs by DAPI staining based analysis; assay type: functional; conditions: dose <= 10.0 µmol/L
[2] = molecular target: Ephrin type-B receptor 1 (Homo sapiens) (UniProt P54762); test: Inhibition of EphB1 (unknown origin) at 1 uM in presence of ATP relative to control; values are per cent of control
[3] = molecular target: Mast/stem cell growth factor receptor Kit (Homo sapiens) (UniProt P10721); test: Inhibition of KIT (unknown origin) at 1 uM in presence of ATP relative to control; values are per cent of control
[4] = molecular target: Serine/threonine-protein kinase TAO2 (Homo sapiens) (UniProt Q9UL54); test: Inhibition of TAO2 (unknown origin) at 1 uM in presence of ATP relative to control; values are per cent of control
[5] = Inhibition of N-terminal 3FLAG-tagged ETV6-TRKC G623R mutant (unknown origin) expressed in NIH3T3 cells assessed as ERK1/2 phosphorylation incubated for 1 hrs by flow cytometric analysis; assay type: cell-based, Homo sapiens
[6] = molecular target: Serine/threonine-protein kinase NLK (Homo sapiens) (UniProt Q9UBE8); test: Inhibition of NLK (unknown origin) at 1 uM in presence of ATP relative to control; values are per cent of control
[7] = molecular target: CDK9/cyclin T1 (Homo sapiens) (UniProt O60563+P50750); test: Inhibition of CDK9/cyclinT1 (unknown origin) at 1 uM in presence of ATP relative to control; values are per cent of control
[8] = molecular target: Dual specificity tyrosine-phosphorylation-regulated kinase 2 (Homo sapiens) (UniProt Q92630); test: Inhibition of DYRK2 (unknown origin) at 1 uM in presence of ATP relative to control; values are per cent of control
[9] = tested on: SHP77; test: Inhibition of cell proliferation in human SHP77 cells upto 10 umol/L incubated for 72 hrs by DAPI staining based analysis; assay type: functional; conditions: dose <= 10.0 µmol/L
[10] = molecular target: Insulin-like growth factor 1 receptor (Homo sapiens) (UniProt P08069); test: Inhibition of IGF-1R (unknown origin) at 1 uM in presence of ATP relative to control; values are per cent of control
[11] = molecular target: Tyrosine-protein kinase FRK (Homo sapiens) (UniProt P42685); test: Inhibition of PTK5 (unknown origin) at 1 uM in presence of ATP relative to control; values are per cent of control
[12] = molecular target: Glycogen synthase kinase-3 alpha (Homo sapiens) (UniProt P49840); test: Inhibition of GSK3alpha (unknown origin) at 1 uM in presence of ATP relative to control; values are per cent of control
[13] = molecular target: Tyrosine-protein kinase BTK (Homo sapiens) (UniProt Q06187); test: Inhibition of BTK (unknown origin) at 1 uM in presence of ATP relative to control; values are per cent of control
[14] = molecular target: Mitogen-activated protein kinase 3 (Homo sapiens) (UniProt P27361); test: Inhibition of ERK1 (unknown origin) at 1 uM in presence of ATP relative to control; values are per cent of control
[15] = molecular target: Testis-specific serine/threonine-protein kinase 2 (Homo sapiens) (UniProt Q96PF2); test: Inhibition of TSSK2 (unknown origin) at 1 uM in presence of ATP relative to control; values are per cent of control
[16] = molecular target: Mitogen-activated protein kinase 10 (Homo sapiens) (UniProt P53779); test: Inhibition of JNK3 (unknown origin) at 1 uM in presence of ATP relative to control; values are per cent of control
[17] = Toxicity in nu/nu NCr mouse xenografted with human KM12 cells harboring TPM3-TRKA fusion protein assessed as body weight loss at 30 to 300 mg/kg, po administered twice daily for 11 days relative to control; assay type: organism-based; conditions: in vivo, 264 h, dose 30-300 mg/kg, time 11 day
[18] = tested on: CHL-1; test: Inhibition of cell proliferation in human CHL-1 cells upto 10 umol/L incubated for 72 hrs by DAPI staining based analysis; assay type: functional; conditions: dose <= 10.0 µmol/L
[19] = molecular target: Macrophage-stimulating protein receptor (Homo sapiens) (UniProt Q04912); test: Inhibition of Ron (unknown origin) at 1 uM in presence of ATP relative to control; values are per cent of control
[20] = Cmax in adult patient with recurrent LMNA-NTRK1 rearranged colorectal cancer at 100 mg administered twice a day as powder-in-capsule or liquid formulation for 22 days by LC-MS/MS analysis; assay type: ADME; conditions: human, in vivo, oral, time 22 day
[21] = tested on: NIH3T3; test: Antitumor activity against mouse NIH3T3 cells harboring extracellular domain deleted TRKA implanted in nu/nu NCr mouse assessed as inhibition of tumor growth at 30 to 300 mg/kg, po administered twice daily for 10 days; assay type: functional, organism-based; conditions: dose 30-300 mg/kg, time 10.0 day
[22] = tested on: FaDu; test: Inhibition of cell proliferation in human FaDu cells upto 10 umol/L incubated for 72 hrs by DAPI staining based analysis; assay type: functional; conditions: dose <= 10.0 µmol/L
[23] = molecular target: Serine/threonine-protein kinase tousled-like 2 (Homo sapiens) (UniProt Q86UE8); test: Inhibition of TLK2 (unknown origin) at 1 uM in presence of ATP relative to control; values are per cent of control
[24] = molecular target: Mitogen-activated protein kinase 9 (Homo sapiens) (UniProt P45984); test: Inhibition of JNK2alpha2 (unknown origin) at 1 uM in presence of ATP relative to control; values are per cent of control
[25] = molecular target: Serine/threonine-protein kinase TBK1 (Homo sapiens) (UniProt Q9UHD2); test: Inhibition of TBK1 (unknown origin) at 1 uM in presence of ATP relative to control; values are per cent of control
[26] = tested on: U138-MG; test: Inhibition of cell proliferation in human U138-MG cells upto 10 umol/L incubated for 72 hrs by DAPI staining based analysis; assay type: functional; conditions: dose <= 10.0 µmol/L
[27] = tested on: TCC-SUP; test: Inhibition of cell proliferation in human TCC-SUP cells upto 10 umol/L incubated for 72 hrs by DAPI staining based analysis; assay type: functional; conditions: dose <= 10.0 µmol/L
[28] = tested on: BFTC-905; test: Inhibition of cell proliferation in human BFTC-905 cells upto 10 umol/L incubated for 72 hrs by DAPI staining based analysis; assay type: functional; conditions: dose <= 10.0 µmol/L
[29] = tested on: RT112/84; test: Inhibition of cell proliferation in human RT112/84 cells upto 10 umol/L incubated for 72 hrs by DAPI staining based analysis; assay type: functional; conditions: dose <= 10.0 µmol/L

Dual specificity tyrosine-phosphorylation-regulated kinase 2 (Homo sapiens), sequence (Q92630 whole entry): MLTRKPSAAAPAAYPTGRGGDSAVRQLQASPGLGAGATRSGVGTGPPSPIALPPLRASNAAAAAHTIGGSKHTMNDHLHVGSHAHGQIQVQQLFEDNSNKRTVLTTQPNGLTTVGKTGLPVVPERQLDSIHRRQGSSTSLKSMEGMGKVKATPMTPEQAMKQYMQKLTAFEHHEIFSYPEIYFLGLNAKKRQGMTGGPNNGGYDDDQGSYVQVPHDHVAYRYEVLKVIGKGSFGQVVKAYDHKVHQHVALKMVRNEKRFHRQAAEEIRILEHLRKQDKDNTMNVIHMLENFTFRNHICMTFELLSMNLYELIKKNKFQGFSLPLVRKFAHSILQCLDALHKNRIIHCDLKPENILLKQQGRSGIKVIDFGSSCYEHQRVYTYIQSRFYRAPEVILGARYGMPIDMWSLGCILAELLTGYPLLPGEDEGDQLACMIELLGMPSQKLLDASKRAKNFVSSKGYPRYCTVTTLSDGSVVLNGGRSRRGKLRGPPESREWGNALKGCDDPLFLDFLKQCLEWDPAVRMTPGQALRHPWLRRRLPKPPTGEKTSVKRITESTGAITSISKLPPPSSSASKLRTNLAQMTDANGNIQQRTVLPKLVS
Mitogen-activated protein kinase 10 (Homo sapiens), sequence (P53779 whole entry, the tested form may be a part): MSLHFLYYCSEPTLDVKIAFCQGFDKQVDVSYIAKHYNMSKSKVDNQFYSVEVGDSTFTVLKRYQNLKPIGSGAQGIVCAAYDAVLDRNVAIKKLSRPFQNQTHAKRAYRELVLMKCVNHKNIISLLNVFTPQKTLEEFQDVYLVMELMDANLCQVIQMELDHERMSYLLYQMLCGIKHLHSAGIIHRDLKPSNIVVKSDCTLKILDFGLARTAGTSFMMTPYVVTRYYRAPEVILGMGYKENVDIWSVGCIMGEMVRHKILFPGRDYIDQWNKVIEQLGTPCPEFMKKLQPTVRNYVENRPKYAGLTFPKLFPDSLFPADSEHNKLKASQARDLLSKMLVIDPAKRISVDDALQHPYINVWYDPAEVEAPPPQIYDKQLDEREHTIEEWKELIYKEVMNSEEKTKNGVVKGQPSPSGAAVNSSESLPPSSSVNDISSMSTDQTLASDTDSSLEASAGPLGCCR
Serine/threonine-protein kinase TBK1 (Homo sapiens), sequence (Q9UHD2 whole entry): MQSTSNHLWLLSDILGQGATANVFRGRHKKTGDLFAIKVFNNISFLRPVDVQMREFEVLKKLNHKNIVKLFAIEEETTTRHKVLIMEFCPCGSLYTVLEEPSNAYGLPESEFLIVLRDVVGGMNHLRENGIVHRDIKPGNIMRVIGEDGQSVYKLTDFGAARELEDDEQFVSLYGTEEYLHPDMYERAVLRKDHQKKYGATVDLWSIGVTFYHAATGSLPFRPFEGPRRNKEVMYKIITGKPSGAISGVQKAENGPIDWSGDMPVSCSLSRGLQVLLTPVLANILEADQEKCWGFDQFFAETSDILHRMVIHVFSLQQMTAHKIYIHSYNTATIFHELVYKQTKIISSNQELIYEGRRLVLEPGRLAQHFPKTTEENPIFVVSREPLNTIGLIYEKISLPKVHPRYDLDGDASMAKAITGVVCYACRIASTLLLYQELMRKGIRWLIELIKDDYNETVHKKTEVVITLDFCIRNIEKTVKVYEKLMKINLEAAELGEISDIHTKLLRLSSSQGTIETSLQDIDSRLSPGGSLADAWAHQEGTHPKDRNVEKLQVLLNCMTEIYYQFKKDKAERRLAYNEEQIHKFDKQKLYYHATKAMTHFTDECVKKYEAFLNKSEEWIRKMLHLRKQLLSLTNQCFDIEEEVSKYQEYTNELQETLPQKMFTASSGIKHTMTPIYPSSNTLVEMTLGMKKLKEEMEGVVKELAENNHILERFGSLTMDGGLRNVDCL
Tyrosine-protein kinase FRK (Homo sapiens), sequence (P42685 whole entry): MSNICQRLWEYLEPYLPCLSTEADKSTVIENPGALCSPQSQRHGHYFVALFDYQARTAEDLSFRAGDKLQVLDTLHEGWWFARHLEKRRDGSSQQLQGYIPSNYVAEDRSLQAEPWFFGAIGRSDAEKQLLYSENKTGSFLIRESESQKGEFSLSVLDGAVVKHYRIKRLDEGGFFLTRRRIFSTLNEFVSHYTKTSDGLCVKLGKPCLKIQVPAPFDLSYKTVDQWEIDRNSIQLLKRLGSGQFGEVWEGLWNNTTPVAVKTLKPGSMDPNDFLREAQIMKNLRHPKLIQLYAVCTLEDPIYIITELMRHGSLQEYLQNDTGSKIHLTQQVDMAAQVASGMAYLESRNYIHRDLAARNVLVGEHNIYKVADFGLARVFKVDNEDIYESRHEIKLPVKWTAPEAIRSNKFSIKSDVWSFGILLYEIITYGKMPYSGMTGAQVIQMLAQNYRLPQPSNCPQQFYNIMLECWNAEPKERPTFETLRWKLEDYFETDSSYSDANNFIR
Tyrosine-protein kinase BTK (Homo sapiens), sequence (Q06187 whole entry): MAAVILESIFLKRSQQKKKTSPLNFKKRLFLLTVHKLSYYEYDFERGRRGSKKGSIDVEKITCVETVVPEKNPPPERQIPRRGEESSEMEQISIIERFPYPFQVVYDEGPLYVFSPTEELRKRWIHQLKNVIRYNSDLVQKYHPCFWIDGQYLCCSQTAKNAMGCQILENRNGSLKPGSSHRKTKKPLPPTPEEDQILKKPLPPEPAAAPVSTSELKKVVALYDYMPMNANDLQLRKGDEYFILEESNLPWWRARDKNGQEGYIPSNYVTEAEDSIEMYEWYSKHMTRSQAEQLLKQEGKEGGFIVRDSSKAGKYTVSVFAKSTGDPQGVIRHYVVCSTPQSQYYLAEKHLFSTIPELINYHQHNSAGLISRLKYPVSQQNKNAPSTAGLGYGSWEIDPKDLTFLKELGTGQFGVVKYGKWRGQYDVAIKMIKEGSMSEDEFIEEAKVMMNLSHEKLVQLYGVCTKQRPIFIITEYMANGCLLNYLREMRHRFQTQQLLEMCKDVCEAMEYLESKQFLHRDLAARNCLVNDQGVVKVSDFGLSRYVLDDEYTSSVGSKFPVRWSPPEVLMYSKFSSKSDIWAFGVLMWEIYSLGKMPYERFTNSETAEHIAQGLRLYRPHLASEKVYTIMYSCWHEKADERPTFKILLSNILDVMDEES
Serine/threonine-protein kinase tousled-like 2 (Homo sapiens), sequence (Q86UE8 whole entry, looked up): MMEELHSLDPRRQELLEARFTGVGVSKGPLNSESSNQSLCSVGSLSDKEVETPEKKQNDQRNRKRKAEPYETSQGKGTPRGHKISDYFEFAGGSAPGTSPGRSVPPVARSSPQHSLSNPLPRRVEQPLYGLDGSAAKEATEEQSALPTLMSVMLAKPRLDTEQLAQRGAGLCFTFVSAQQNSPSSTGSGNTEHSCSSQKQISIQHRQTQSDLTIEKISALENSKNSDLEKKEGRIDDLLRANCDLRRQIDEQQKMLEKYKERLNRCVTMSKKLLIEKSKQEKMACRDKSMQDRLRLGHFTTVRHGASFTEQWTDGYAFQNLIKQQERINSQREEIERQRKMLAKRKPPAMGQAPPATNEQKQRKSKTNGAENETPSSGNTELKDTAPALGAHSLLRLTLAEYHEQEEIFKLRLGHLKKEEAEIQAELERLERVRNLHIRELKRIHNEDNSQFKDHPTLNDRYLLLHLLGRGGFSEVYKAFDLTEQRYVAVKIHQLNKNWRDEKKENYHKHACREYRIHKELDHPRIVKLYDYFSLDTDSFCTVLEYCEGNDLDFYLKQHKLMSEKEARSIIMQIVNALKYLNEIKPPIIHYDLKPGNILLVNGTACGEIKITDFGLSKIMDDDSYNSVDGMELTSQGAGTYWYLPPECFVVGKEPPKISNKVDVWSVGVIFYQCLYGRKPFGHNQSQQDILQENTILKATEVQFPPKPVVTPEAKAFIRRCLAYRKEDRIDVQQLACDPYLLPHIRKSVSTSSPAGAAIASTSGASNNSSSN
Serine/threonine-protein kinase TAO2 (Homo sapiens), sequence (Q9UL54 whole entry): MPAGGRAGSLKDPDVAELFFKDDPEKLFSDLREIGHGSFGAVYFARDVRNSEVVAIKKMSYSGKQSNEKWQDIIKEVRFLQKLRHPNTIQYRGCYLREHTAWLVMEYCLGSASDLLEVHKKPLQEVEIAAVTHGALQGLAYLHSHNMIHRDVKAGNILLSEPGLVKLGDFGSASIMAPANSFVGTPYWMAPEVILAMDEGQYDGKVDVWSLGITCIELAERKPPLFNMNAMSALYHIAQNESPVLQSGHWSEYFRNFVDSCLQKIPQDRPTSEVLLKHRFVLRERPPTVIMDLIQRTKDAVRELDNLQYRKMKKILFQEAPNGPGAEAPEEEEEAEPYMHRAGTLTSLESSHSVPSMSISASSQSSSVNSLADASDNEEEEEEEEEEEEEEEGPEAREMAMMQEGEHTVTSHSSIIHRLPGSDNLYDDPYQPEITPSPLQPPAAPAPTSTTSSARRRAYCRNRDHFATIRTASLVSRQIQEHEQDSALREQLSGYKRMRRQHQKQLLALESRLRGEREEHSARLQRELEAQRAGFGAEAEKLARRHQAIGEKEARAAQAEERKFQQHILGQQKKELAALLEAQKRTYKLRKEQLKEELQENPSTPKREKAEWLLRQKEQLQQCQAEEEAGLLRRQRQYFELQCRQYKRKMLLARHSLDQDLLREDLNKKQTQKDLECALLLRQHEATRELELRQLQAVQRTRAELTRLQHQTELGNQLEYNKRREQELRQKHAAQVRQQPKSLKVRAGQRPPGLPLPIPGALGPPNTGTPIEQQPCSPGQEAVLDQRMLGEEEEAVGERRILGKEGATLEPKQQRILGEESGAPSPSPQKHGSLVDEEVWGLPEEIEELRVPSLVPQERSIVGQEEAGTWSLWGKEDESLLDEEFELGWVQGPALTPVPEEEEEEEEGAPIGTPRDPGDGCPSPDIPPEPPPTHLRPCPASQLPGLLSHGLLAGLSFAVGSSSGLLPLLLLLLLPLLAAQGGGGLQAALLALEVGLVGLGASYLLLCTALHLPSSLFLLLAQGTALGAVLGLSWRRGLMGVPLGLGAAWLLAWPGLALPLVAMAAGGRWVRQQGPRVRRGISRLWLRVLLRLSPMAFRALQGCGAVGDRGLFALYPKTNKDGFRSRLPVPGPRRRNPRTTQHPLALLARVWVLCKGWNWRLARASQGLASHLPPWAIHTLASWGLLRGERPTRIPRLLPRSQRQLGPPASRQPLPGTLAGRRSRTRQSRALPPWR

- residual activity [2]: 112%
- residual activity [3]: 100%
- residual activity [4]: 104%
- IC50 [5]: 45.5 nM
- residual activity [6]: 110%
- residual activity [7]: 110%
- residual activity [8]: 102%
- residual activity [10]: 96%
- residual activity [11]: 87.5%
- residual activity [12]: 117%
- residual activity [13]: 87%
- residual activity [14]: 111%
- residual activity [15]: 120%
- residual activity [16]: 109%
- residual activity [19]: 88.5%
- Cmax [20]: 800 ng/mL
- residual activity [23]: 108%
- residual activity [24]: 100%
- residual activity [25]: 111%
SMILES: C[C@@H]1CCc2ncc(F)cc2[C@H]2CCCN2c2ccn3ncc(c3n2)C(=O)N1 [SELITRECTINIB]
- inhibition [1]: inactive
- inhibition [9]: inactive
- Activity [17]: < 5%
- inhibition [18]: inactive
- Activity [21]: Active
- inhibition [22]: inactive
- inhibition [26]: inactive
- inhibition [27]: inactive
- inhibition [28]: inactive
- inhibition [29]: inactive
